Results on 6 molecules are retold here after patent US20030119814A1, “Novel prodrugs of N-H bond-containing compounds and methods of making thereof” (The University of Kansas, priority 2001, published 2003).

The solubility is the dissolved amount per volume that the medium holds. Read a low solubility as little dissolved substance. The term melting point denotes the temperature of the solid-liquid transition. In general, half-life refers to the time needed for the level to fall by half in the phase considered.

The conditions of series [1]: rabbits; due to high thiols in the blood; cited from earlier work.
The nature of another series: physchem. The conditions noted are these: soybean oil, oil or lipid.
Series [2] is described as follows: Aqueous stability in buffer at 25 degrees Celsius. It is filed as physicochemical. Particulars: for aqueous degradation kinetics: buffered aqueous solution, Ionic Strength 0.15M; for half-life: 35 mM Acetate Buffer, Ionic Strength 0.15M (NaCl). The method, then:
(§1) 1HNMR (300 MHz, DMSO-d6): □ 3.05 (d of d, 1H), 3.25 (d of d, 1H), 3.80 (broad), 4.15 (broad, 1H), 7.45 (t, 2H), 7.55 (t, 1H), 7.80 (d, 2H), 8.40 (broad), 9.60 (s, 1H). FAB+ 241.0 (M+1). […] When a 10 times molar excess of cysteine was added to the above solution, the model prodrug degraded (reverted to yield benzamide) with a half life of ˜20 to 30 minutes. In addition, the above benzamide-cysteine model prodrug had improved aqueous solubility compared to benzamide.
(§2) 1HNMR (300 MHz, CDCl3): □ 1.15 (t, 3H), 3.10 (d of d, 11H), 3.70 (d of d, 11H), 3.95 (m, 2H), 4.70 (m, 1H), 5.05 (d of d, 2H), 6.25 (d, 1H), 7.35 (broad s, 5H), 7.75 (m, 2H), 7.90 (m, 2H). […] When a 10 times molar excess of cysteine was added to the above solution, the model prodrug degraded (reverted to yield phthalimide) instantaneously (kinetics were not measurable).
(§3) ^1HNMR (300 MHz, DMSO-d6): □ 1.15 (t, 3H), 2.85 (d of d, 1H), 3.05 (d of d, 1H), 4.05 (m, 1H), 4.15 (q, 2H), 6.95 (s, 2H), 7.10 (s, 1H), 7.35 (m, 2H), 7.40 (broad s, 6H), 8.40 (broad). FAB+ 384.1 (M+1).

Series [3] is described as follows: Reversion of prodrug to parent on addition of 10 times molar excess of cysteine. The series is classed as physicochemical. The method, then: as §1, §2
Series [4] is described as follows: Aqueous solubility compared to parent compound. It is filed as physicochemical. As for the experimental part: as §1, §3
Setting [5] is: within a pH range of 4.0 to 7.0, 25 degrees Celsius, projected by Eyring Plot.

For the molecule `O=C1C2CC=CCC2C(=O)N1SC(Cl)(Cl)Cl` (stereo not shown) [Captan, N-trichloromethylthio-4-cyclohexane 1,2-dicarboximide], the “fate of active form in the body” value in series [1] was “broken down in the body”.
Take `CCOC(=O)CCSN(CC1CN(c2ccc(N3CCOCC3)c(F)c2)C(=O)O1)C(C)=O` (stereo not shown) [Example 10]: the solubility in “physchem” was over 30 mg/mL.
In the case of `CC(=O)N(CC1CN(c2ccc(N3CCOCC3)c(F)c2)C(=O)O1)Sc1ccccc1` (stereo not shown) [Example 11], the melting point was 120.9 °C. This molecule also displayed a solubility in “physchem” of over 10 mg/mL.
Consider `NC(CSNC(=O)c1ccccc1)C(=O)O` (stereo not shown) [Example 13], for which the aqueous degradation kinetics result in series [2] is “Pseudo-first order degradation kinetics were observed”. The “pH of maximum stability” value in series [2] (setting [5]) was determined as 6.0. In addition, the half-life in series [3] (phosphate buffer with 10 times molar excess of cysteine, 10 times molar excess of cysteine added to the phosphate buffer solution) fell in the range of 0.333 to 0.5 h. Also, in series [4], the “aqueous solubility compared to parent compound” value is “improved”.
For the molecule `CCOC(=O)C(CSN1C(=O)c2ccccc2C1=O)NC(=O)OCc1ccccc1` (stereo not shown) [Example 15], the aqueous degradation kinetics result in series [2] is on record as “did not show pseudo-first order kinetics”. For the same molecule, the half-life in series [2] (pH 3.5, 25 degrees Celsius) was 8 to 9 days. Further, the “pH of maximum stability” value in series [2] (within a pH range of 3.5 to 5.0, 25 degrees Celsius) amounted to 3.5. In addition, the “degradation (reversion to parent) with cysteine” value in series [3] (10 times molar excess of cysteine added to the acetate buffer solution, kinetics not measurable) is “instantaneously”.
Consider `CCOC(=O)C(N)CSNC(=O)N1c2ccccc2C=Cc2ccccc21` (stereo not shown) [Example 16], for which, in series [2], the aqueous degradation kinetics result is on record as “Pseudo-first order degradation kinetics were observed”. In series [2] (pH 4.0, 25 degrees Celsius, projected by Eyring Plot), this molecule had a half-life of about 181 days. For the same molecule, in series [2] (setting [5]), the “pH of maximum stability” value was 4.0. Also, the “aqueous solubility compared to parent compound” value in series [4] is on record as “greatly improved”.
